The record followed here is ChEMBL document CHEMBL1131863, “Synthesis and antibacterial activity of HMR 3647 a new ketolide highly potent against erythromycin-resistant and susceptible pathogens” (1999).

In general, ED50 refers to the dose that gives a 50% effect, or the effect in half of the subjects.

Experiment [1] concerns Haemophilus influenzae. Description: (§1) The compound was tested in vivo for antibacterial activity against AmpR beta(+) Haemophilus influenza 351RD7 in mice after oral administration. The class given is functional.
Experiment [2] deals with Haemophilus influenzae. Description: (§2) The compound was tested in vivo for antibacterial activity against AmpR beta(-) Haemophilus influenza 351TO19 in mice after oral administration. The class given is functional.
For experiment [3], the system named is Haemophilus influenzae. Briefly: (§3) The compound was tested in vivo for antibacterial activity against Haemophilus influenza 351GR1 in mice after oral administration. It counts as functional.
The subject of experiment [4] is Mus musculus. The description is as §1. The class given is functional.
Experiment [5] has as its system Haemophilus influenzae. Description: The compound was tested in vitro for antibacterial activity against Haemophilus influenza 351HT3. It counts as functional.
Experiment [6] deals with Staphylococcus aureus. Briefly: The compound was tested in vitro for antibacterial activity against erythromycin susceptible Staphylococcus aureus 011UC4. It counts as functional.
Experiment [7] relates to Haemophilus influenzae. Briefly: The compound was tested in vitro for antibacterial activity against 39 strains of Haemophilus influenza AmpR; Value is 2.5/10. It counts as functional, organism-based.
The subject of experiment [8] is Mus musculus. The description is as §2. It counts as functional.
Experiment [9] concerns Mus musculus. Description: The compound was tested in vivo for antibacterial activity against erythromycin susceptible Streptococcus pneumoniae 032UC1 in mice after oral administration. The class given is functional.
The subject of experiment [10] is Streptococcus pyogenes. Briefly: The compound was tested in vitro for antibacterial activity against erythromycin susceptible Streptococcus pyogenes 02A1UC1. It counts as functional.
Experiment [11] concerns Mus musculus. Description: The compound was tested in vivo for antibacterial activity against inducibly erythromycin resistant Staphylococcus aureus 011GO3 in mice after oral administration. It counts as functional.
For experiment [12], the system named is Streptococcus pneumoniae. Description: The compound was tested in vitro for antibacterial activity against constitutively erythromycin resistant Streptococcus pneumoniae 030SJ1. It counts as functional.
The subject of experiment [13] is Mus musculus. Briefly: The compound was tested in vivo for antibacterial activity against erythromycin susceptible Staphylococcus aureus 011UC4 in mice after oral administration. The class given is functional.
Experiment [14] deals with Mus musculus. Description: The compound was tested in vivo for antibacterial activity against erythromycin susceptible Streptococcus pyogenes 02A1UC1 in mice after oral administration. The class given is functional.
Experiment [15] relates to Streptococcus pneumoniae. Description: The compound was tested in vitro for antibacterial activity against inducibly erythromycin resistant Streptococcus pneumoniae 030J5i. The class given is functional.
Experiment [16] concerns Staphylococcus aureus. Briefly: The compound was tested in vitro for antibacterial activity against constitutively erythromycin resistant Staphylococcus aureus 011CB20. It counts as functional.
In experiment [17] the test system is Mus musculus. Briefly: The compound was tested in vivo for antibacterial activity against constitutively erythromycin resistant Streptococcus pneumoniae 030SJ1 in mice after oral administration. The class given is functional.
Experiment [18] has as its system Streptococcus pneumoniae. Briefly: The compound was tested in vitro for antibacterial activity against constitutively erythromycin resistant Streptococcus pneumoniae 030CR18c. It counts as functional.
Experiment [19] deals with Streptococcus sp. Description: The compound was tested in vitro for antibacterial activity against 31 strains of erythromycin resistant Streptococci; Value is 1.2/40. The class given is functional, organism-based.
The test system of experiment [20] is Mus musculus. The description is as §3. It counts as functional.
The subject of experiment [21] is Streptococcus pneumoniae. Briefly: The compound was tested in vitro for antibacterial activity against 53 strains of Streptococcus pneumoniae PenR Value is 0.3/40. The class given is functional, organism-based.
Experiment [22] deals with Mus musculus. Description: The compound was tested in vivo for antibacterial activity against constitutively erythromycin resistant Streptococcus pneumoniae 030Cr29 in mice after oral administration. The class given is functional.
The subject of experiment [23] is Mus musculus. Briefly: The compound was tested in vivo for antibacterial activity against constitutively erythromycin resistant Streptococcus pneumoniae 030SJ6 in mice after oral administration. It counts as functional.
Experiment [24] has as its system Mus musculus. Briefly: The compound was tested in vivo for antibacterial activity against constitutively erythromycin resistant Streptococcus pneumoniae 030MV2 in mice after oral administration. The class given is functional.
For experiment [25], the system named is Staphylococcus aureus. Briefly: The compound was tested in vitro for antibacterial activity against inducibly erythromycin resistant Staphylococcus aureus 011GO25i. It counts as functional.
Experiment [26] concerns Streptococcus pneumoniae. Description: The compound was tested in vitro for antibacterial activity against 40 strains of constitutively erythromycin resistant Streptococcus pneumoniae Value is 40/40. It counts as functional, organism-based.
Experiment [27] has as its system Streptococcus pneumoniae. Description: The compound was tested in vitro for antibacterial activity against 32 strains of inducibly erythromycin resistant Streptococcus pneumoniae Value is 40/40. The class given is functional, organism-based.
Experiment [28] relates to Haemophilus influenzae. Briefly: The compound was tested in vitro for antibacterial activity against 47 strains of Haemophilus influenza AmpS; Value is 1.2/5. The class given is functional, organism-based.
Experiment [29] relates to Streptococcus pneumoniae. Description: The compound was tested in vitro for antibacterial activity against erythromycin susceptible Streptococcus pneumoniae 032UC1. The class given is functional.
Experiment [30] relates to Staphylococcus sp. Description: The compound was tested in vitro for antibacterial activity against 66 strains of inducibly erythromycin resistant Staphylococci; Value is 40/40. The class given is functional, organism-based.
Experiment [31] relates to Streptococcus pneumoniae. Briefly: The compound was tested in vitro for antibacterial activity against constitutively erythromycin resistant Streptococcus pneumoniae 030PW23c. It counts as functional.
The subject of experiment [32] is Mus musculus. Briefly: The compound was tested in vivo for antibacterial activity against inducibly erythromycin resistant Streptococcus pneumoniae 030RO1 in mice after oral administration. The class given is functional.
The test system of experiment [33] is Escherichia coli. Briefly: The compound was tested in vitro for antibacterial activity against Escherichia coli 250 UCS. The class given is functional.

The structures appear in SMILES notation. ≈ marks a conversion by molar mass, not a printed value. Calls of active or inactive are those of the source. The calls are words filed in the database; no cut-off is given here.

`CC1(C)S[C@@H]2[C@H](NC(=O)[C@H](N)c3ccccc3)C(=O)N2[C@H]1C(=O)O` [AMPICILLIN]: the 50% effective dose (ED50) was above 600 mg/kg in experiment [1], 39 mg/kg in experiment [2] and 5.5 mg/kg in [3].

For the molecule `CC[C@H]1OC(=O)[C@H](C)[C@@H](O[C@H]2C[C@@](C)(OC)[C@@H](O)[C@H](C)O2)[C@H](C)[C@@H](O[C@@H]2O[C@H](C)C[C@H](N(C)C)[C@H]2O)[C@](C)(OC)C[C@@H](C)C(=O)[C@H](C)[C@@H](O)[C@]1(C)O` [CLARITHROMYCIN], the ED50 in [4] was 120 mg/kg; in experiment [8], above 300 mg/kg; in [9] it was 7.5 mg/kg; in [11], 55 mg/kg; in experiment [13], 6 mg/kg; in [14] it was 16 mg/kg. The ED50 is above 50 mg/kg in experiment [17]; 71 mg/kg in experiment [20]; above 50 mg/kg in experiment [22]; above 50 mg/kg in experiment [23]; above 50 mg/kg in experiment [24]; above 50 mg/kg in [32]. Besides, the MIC in experiment [5] stood at 5 µg/mL (≈ 6.68 µM); in [6], 0.3 µg/mL (≈ 0.401 µM); in experiment [10], 0.08 µg/mL (≈ 0.107 µM); in [12], 40 µg/mL (≈ 53.5 µM); in [15], 40 µg/mL (≈ 53.5 µM); in experiment [16], 40 µg/mL (≈ 53.5 µM). Besides, the MIC stood at 40 µg/mL (≈ 53.5 µM) in experiment [18]; 40 µg/mL (≈ 53.5 µM) in [25]; 0.04 µg/mL (≈ 0.0535 µM) in experiment [29]; 40 µg/mL (≈ 53.5 µM) in experiment [31]; 40 µg/mL (≈ 53.5 µM) in [33]. Moreover, the MIC50/MIC90 entry in experiment [7], in [19], in experiment [21], in experiment [26], in experiment [27] and in experiment [28] was “Active” each time. Moreover, the MIC50/MIC90 entry in experiment [30] is “Active”.
